Legend:
Type in all cases: in vivo
[1] = test system: diamondback moth (Plutella xylostella); assay: Test A: control of diamondback moth on radish plant, foliar spray; conditions: sprayed at 50 ppm; neonate larvae on radish; assessed after 6 days; replicated three times
From the text: For evaluating control of diamondback moth (Plutella xylostella) the test unit consisted of a small open container with a 12-14-day-old radish plant inside. This was pre-infested with about 50 neonate larvae that were dispensed into the test unit via corn-cob grits using a bazooka inoculator. The larvae moved onto the test plant after being dispensed into the test unit.
(§1) Test compounds were formulated using a solution containing 10% acetone, 90% water and 300 ppm X-77™ Spreader Lo-Foam Formula non-ionic surfactant containing alkylarylpolyoxyethylene, free fatty acids, glycols and isopropanol (Loveland Industries, Inc. Greeley, Colo., USA). The formulated compounds were applied in 1 mL of liquid through a SUJ2 atomizer nozzle with ⅛ JJ custom body (Spraying Systems Co. Wheaton, Ill., USA) positioned 1.27 cm (0.5 inches) above the top of each test unit. All experimental compounds in these tests were sprayed at 50 ppm, and the test was replicated three times. After spraying of the formulated test compound, each test unit was allowed to dry for 1 h and then a black, screened cap was placed on top. The test units were held for 6 days in a growth chamber at 25° C. and 70% relative humidity. Plant feeding damage was then visually assessed based on foliage consumed and a pest mortality rating was also counted and calculated for each test unit.

[2] = test system: western flower thrips (Frankliniella occidentalis); assay: Test E: control of western flower thrips on Soleil bean plant, contact and/or systemic; conditions: adult thrips, assessed after 6 days, replicated three times
Protocol: as §1
For evaluating control of the western flower thrips (Frankliniella occidentalis) through contact and/or systemic means, the test unit consisted of a small open container with a 5-7 day old Soleil Bean plant inside. Test compounds were formulated and sprayed as described for Test A. All experimental compounds in these tests were sprayed at 250 or 50 ppm as noted, and the test was replicated three times. After spraying, the test units were allowed to dry for 1 hour and then 22-27 adult thrips were added to each unit and then a black, screened cap was placed on top. The test units were held for 6 days at 25° C. and 45-55% relative humidity. A mortality rating was assessed along with a plant damage rating for each test unit.

[3] = test system: fall armyworm (Spodoptera frugiperda); assay: Test B: control of fall armyworm on corn (maize) plant, foliar spray; conditions: sprayed at 50 ppm; 1-day-old larvae on corn; replicated three times
Protocol: as §1
For evaluating control of fall armyworm (Spodoptera frugiperda) the test unit consisted of a small open container with a 4-5-day-old corn (maize) plant inside. This was pre-infested (using a core sampler) with 10-15 1-day-old larvae on a piece of insect diet. Test compounds were formulated and sprayed at 50 ppm as described for Test A and replicated three times. After spraying, the test units were maintained in a growth chamber and then the control efficacy was rated for each test unit as described for Test A.

Row | Compound | control efficacy (feeding damage or mortality): very good to excellent levels [1] | control efficacy (feeding damage or mortality): very good to excellent levels ([2]; sprayed at 50 ppm) | control efficacy (feeding damage or mortality): very good to excellent levels ([2]; sprayed at 250 ppm) | control efficacy (feeding damage or mortality): very good to excellent levels [3]
1 | COCCNC(=O)CNC(=O)c1ccc(C2=NOC(c3cc(Cl)cc(Cl)c3)(C(F)(F)F)C2)c2ccccc12 (stereo not drawn) [Compound 47] | 20% or less feeding damage or 80% or more mortality | 20% or less feeding damage or 80% or more mortality | 20% or less feeding damage or 80% or more mortality | 20% or less feeding damage or 80% or more mortality
2 | CSCCNC(=O)CNC(=O)c1ccc(C2=NOC(c3cc(Cl)c(Cl)c(Cl)c3)(C(F)(F)F)C2)c2ccccc12 (stereo not drawn) [Compound 49] | 20% or less feeding damage or 80% or more mortality | – | 20% or less feeding damage or 80% or more mortality | 20% or less feeding damage or 80% or more mortality
3 | O=C(CNC(=O)c1ccc(C2=NOC(c3cc(Cl)cc(Cl)c3)(C(F)(F)F)C2)c2ccccc12)NC1CC1 (stereo not drawn) [Compound 50] | 20% or less feeding damage or 80% or more mortality | 20% or less feeding damage or 80% or more mortality | 20% or less feeding damage or 80% or more mortality | 20% or less feeding damage or 80% or more mortality
4 | C[C@@H](NC(=O)c1ccc(C2=NOC(c3cc(Cl)cc(Cl)c3)(C(F)(F)F)C2)c2ccccc12)C(=O)NC1CC1 (stereo partly drawn) [Compound 53] | 20% or less feeding damage or 80% or more mortality | 20% or less feeding damage or 80% or more mortality | 20% or less feeding damage or 80% or more mortality | 20% or less feeding damage or 80% or more mortality
5 | O=C(CNC(=O)c1ccc(C2=NOC(c3cc(C(F)(F)F)cc(C(F)(F)F)c3)(C(F)(F)F)C2)c2ccccc12)NC1CC1 (stereo not drawn) [Compound 55] | 20% or less feeding damage or 80% or more mortality | 20% or less feeding damage or 80% or more mortality | 20% or less feeding damage or 80% or more mortality | 20% or less feeding damage or 80% or more mortality
6 | C[C@@H](NC(=O)c1ccc(C2=NOC(c3cc(C(F)(F)F)cc(C(F)(F)F)c3)(C(F)(F)F)C2)c2ccccc12)C(=O)NC1CC1 (stereo partly drawn) [Compound 64] | 20% or less feeding damage or 80% or more mortality | 20% or less feeding damage or 80% or more mortality | 20% or less feeding damage or 80% or more mortality | 20% or less feeding damage or 80% or more mortality
7 | C[C@@H](NC(=O)c1ccc(C2=NOC(c3cc(C(F)(F)F)cc(C(F)(F)F)c3)(C(F)(F)F)C2)c2ccccc12)C(N)=O (stereo partly drawn) [Compound 65] | 20% or less feeding damage or 80% or more mortality | 20% or less feeding damage or 80% or more mortality | – | 20% or less feeding damage or 80% or more mortality
8 | C[C@@H](NC(=O)c1ccc(C2=NOC(c3cc(C(F)(F)F)cc(C(F)(F)F)c3)(C(F)(F)F)C2)c2ccccc12)C(=O)NCC1CC1 (stereo partly drawn) [Compound 66] | 20% or less feeding damage or 80% or more mortality | 20% or less feeding damage or 80% or more mortality | 20% or less feeding damage or 80% or more mortality | 20% or less feeding damage or 80% or more mortality
9 | CC(NC(=O)c1ccc(C2=NOC(c3cc(C(F)(F)F)cc(C(F)(F)F)c3)(C(F)(F)F)C2)c2ccccc12)C(=O)NC1CC1 (stereo not drawn) [Compound 67] | 20% or less feeding damage or 80% or more mortality | 20% or less feeding damage or 80% or more mortality | 20% or less feeding damage or 80% or more mortality | 20% or less feeding damage or 80% or more mortality
10 | CC(NC(=O)c1ccc(C2=NOC(c3cc(C(F)(F)F)cc(C(F)(F)F)c3)(C(F)(F)F)C2)c2ccccc12)C(=O)NCC1CC1 (stereo not drawn) [Compound 68] | 20% or less feeding damage or 80% or more mortality | 20% or less feeding damage or 80% or more mortality | 20% or less feeding damage or 80% or more mortality | 20% or less feeding damage or 80% or more mortality
11 | CC(NC(=O)c1ccc(C2=NOC(c3cc(C(F)(F)F)cc(C(F)(F)F)c3)(C(F)(F)F)C2)c2ccccc12)C(N)=O (stereo not drawn) [Compound 69] | 20% or less feeding damage or 80% or more mortality | 20% or less feeding damage or 80% or more mortality | – | 20% or less feeding damage or 80% or more mortality
12 | NC(=O)CNC(=O)c1ccc(C2=NOC(c3cc(C(F)(F)F)cc(C(F)(F)F)c3)(C(F)(F)F)C2)c2ccccc12 (stereo not drawn) [Compound 70] | 20% or less feeding damage or 80% or more mortality | 20% or less feeding damage or 80% or more mortality | – | 20% or less feeding damage or 80% or more mortality
13 | O=C(CNC(=O)c1ccc(C2=NOC(c3cc(C(F)(F)F)cc(C(F)(F)F)c3)(C(F)(F)F)C2)c2ccccc12)NCC1CC1 (stereo not drawn) [Compound 71] | 20% or less feeding damage or 80% or more mortality | 20% or less feeding damage or 80% or more mortality | – | 20% or less feeding damage or 80% or more mortality
14 | C[C@@H](NC(=O)c1ccc(C2=NOC(c3cc(Cl)cc(C(F)(F)F)c3)(C(F)(F)F)C2)c2ccccc12)C(=O)NC1CC1 (stereo partly drawn) [Compound 72] | 20% or less feeding damage or 80% or more mortality | 20% or less feeding damage or 80% or more mortality | 20% or less feeding damage or 80% or more mortality | 20% or less feeding damage or 80% or more mortality
